In patent US10888576B2, “Composition of HMB and ATP and methods of use” (Metabolic Technologies, Inc., priority 2018, dated 2021):

Key:
[1] = tested on: resistance-trained males; experiment: Perceived Recovery Status (PRS) scale; type: in vivo, human; settings: for effect on PRS: 12-week study, vs placebo; for PRS (perceived recovery score): scale of 0-10, Mean ± SEM
Method: (§1) Prior to the study, participants were randomly assigned to receive either 3 g per day of HMB Free Acid (HMB) (combined with food-grade orange flavors and sweeteners), 400 mg per day of ATP (PEAK ATP®; TSI, Inc.), a combination of both 3 g of HMB and 400 mg per day of ATP, or a placebo (food-grade orange flavors and sweeteners) divided equally into three servings daily with the first serving given 30 minutes prior to exercise and the remaining two servings daily with the mid-day and evening meals. On the non-training days participants were instructed to consume one serving with each of three separate meals. The supplementation was continued daily throughout the training and testing protocols. Each serving was formulated with 1 gram of HMB free acid to account for fill and emptying variation and achieve a minimum effective dosage of 0.800 grams. This dosage would be equivalent to a 1 gram Ca-HMB dosage.
[…] The PRS scale consists of values between 0-10, with 0-2 being very poorly recovered and with anticipated declines in performance, 4-6 being low to moderately recovered and expected similar performance, and 8-10 representing high perceived recovery with expected increases in performance.

[2] = tested on: free testosterone; experiment: Serum free testosterone ELISA; type: in vivo, human; settings: for effect on free testosterone: main effect; for Free Testosterone: Mean ± SEM
Method: as §1
All blood draws throughout the study were obtained via venipuncture after a 12-hour fast by a trained phlebotomist. Whole blood was collected and transferred into appropriate tubes for obtaining serum and plasma and centrifuged at 1,500 g for 15 min at 4° C. Resulting serum and plasma were then aliquoted and stored at −80° C. until subsequent analyses.
(§2) Samples were thawed one time and analyzed in duplicate for each analyte. All blood draws were scheduled at the same time of day to negate confounding influences of diurnal hormonal variations. Serum total and free testosterone, cortisol, and C-reactive protein (CRP) were assayed via ELISA kits obtained from Diagnostic Systems Laboratories (Webster, Tex.). All hormones were measured in the same assay on the same day to avoid compounded interassay variance. […] Serum creatine kinase (CK) was measured using colorimetric procedures at 340 nm (Diagnostics Chemicals, Oxford, Conn.). Twenty-four hour urine collections were made and 3-methylhistine was determined by previously described methods (Rathmacher et al 1992 and Wilson et al, 2013).

[3] = tested on: resistance-trained males; experiment: Body composition (weight, lean body mass, fat) by dual x-ray absorptiometry, 12-week resistance training study; type: in vivo, human
[4] = tested on: resistance-trained males; experiment: Wingate test peak power (maximal cycling); type: in vivo, human; settings: for Wingate PP gains in power from baseline: after the first week of the increased training (overreaching); for Wingate PP decrease: during the 2-week overreaching cycle
Method: Muscle power was assessed during maximal cycling (Wingate Test) and jumping movements. During the cycling test, volunteers were instructed to cycle against a predetermined resistance (7.5% of body weight) as fast as possible for 10 seconds (36). The saddle height was adjusted to the individual's height to produce a 5-10° knee flexion while the foot was in the low position of the central void. A standardized verbal stimulus was provided to each participant. Power output was recorded in real time during the 10-second sprint test, by a computer connected to the standard cycle ergometer (Monark model 894e, Vansbro, Sweden). Peak power (PP) was recorded using Monark Anaerobic Wingate Software, Version 1.0 (Monark, Vansbro, Sweden). The ICC of muscle peak power was 0.96. Prior to the study, participants were randomly assigned to receive either 3 g per day of HMB Free Acid (HMB) (combined with food-grade orange flavors and sweeteners), 400 mg per day of ATP (PEAK ATP®; TSI, Inc.), a combination of both 3 g of HMB and 400 mg per day of ATP, or a placebo (food-grade orange flavors and sweeteners) divided equally into three servings daily with the first serving given 30 minutes prior to exercise and the remaining two servings daily with the mid-day and evening meals. On the non-training days participants were instructed to consume one serving with each of three separate meals. The supplementation was continued daily throughout the training and testing protocols. […] This dosage would be equivalent to a 1 gram Ca-HMB dosage. All participants performed a high volume resistance training protocol during the 12-week study. The phases of the study and measurements taken are shown in FIG. 1, and the exercise protocols for each phase of the study are shown in Tables 1 to 3. The training was divided into 3 phases, with Phase 1 consisting of daily undulating periodization (weeks 1 to 8), Phase 2 consisting of the overreaching cycle (weeks 9 and 10), and Phase 3 consisting of the taper cycle (weeks 11 and 12).

[5] = tested on: resistance-trained males; experiment: Skeletal muscle hypertrophy: ultrasonography muscle thickness of quadriceps (VL and VI); type: in vivo, human; settings: for 12-week increases in quadriceps thicknesses: 12 weeks
[6] = tested on: urinary 3-MH:Cr ratio; experiment: 24 h urinary 3-methylhistidine:creatinine ratio (muscle protein degradation); type: in vivo, human; settings: Mean ± SEM
Method: as §1, §2
The rate of muscle protein degradation was evaluated by measuring urinary 3-MH:Cr ratio (Table 6).

[7] = after administration; cited from earlier work
[8] = after HMB is fed; cited from earlier work
[9] = tested on: skeletal muscle; settings: acute ingestion of 2.4 grams; cited from earlier work

Nc1ncnc2c1ncn2[C@@H]1O[C@H](COP(=O)(O)OP(=O)(O)OP(=O)(O)O)[C@@H](O)[C@H]1O [ATP, Adenosine-5′-triphosphate]
effect on PRS [1]: improved PRS scores after the overreaching cycle at weeks 10 and 12
PRS (perceived recovery score) ([1]; week 0 (baseline)): 9.6 ± 0.2
PRS (perceived recovery score) ([1]; week 1): 4.9 ± 0.4
PRS (perceived recovery score) ([1]; week 4): 7.5 ± 0.3
PRS (perceived recovery score) ([1]; week 8): 8.2 ± 0.3
PRS (perceived recovery score) ([1]; week 9 (overreaching)): 5.5 ± 0.4
PRS (perceived recovery score) ([1]; week 10 (overreaching)): 5.5 ± 0.4
PRS (perceived recovery score) ([1]; week 12): 8.6 ± 0.4
effect on free testosterone [2]: no main effect differences
Free Testosterone ([2]; week 0 (baseline)): 112 ± 13 ng/dL
Free Testosterone ([2]; week 1): 114 ± 9 ng/dL
Free Testosterone ([2]; week 4): 118 ± 6 ng/dL
Free Testosterone ([2]; week 8): 117 ± 11 ng/dL
Free Testosterone ([2]; week 9 (overreaching)): 108 ± 7 ng/dL
Free Testosterone ([2]; week 10 (overreaching)): 110 ± 10 ng/dL
Free Testosterone ([2]; week 12): 125 ± 13 ng/dL
Lean body mass increase ([3]; 12-week study): 4.0 ± 0.4 kg
DXA Fat ([3]; week 0 (baseline)): 19.5 ± 1.8%
DXA LBM ([3]; week 0 (baseline)): 67.7 ± 2.0 kg
Weight ([3]; week 0 (baseline)): 85.7 ± 1.7 kg
DXA Fat ([3]; week 4): 18.1 ± 1.8%
DXA LBM ([3]; week 4): 70.1 ± 1.9 kg
Weight ([3]; week 4): 86.9 ± 2.0 kg
DXA Fat ([3]; week 8): 16.6 ± 1.6%
DXA LBM ([3]; week 8): 71.4 ± 2.0 kg
Weight ([3]; week 8): 87.0 ± 2.0 kg
DXA Fat ([3]; week 12): 16.0 ± 1.5%
DXA LBM ([3]; week 12): 71.7 ± 1.9 kg
Weight ([3]; week 12): 87.0 ± 2.1 kg
Wingate PP gains in power from baseline [4]: 9.0±1.6%
Wingate PP decrease [4]: 2.9±0.7%
12-week increases in quadriceps thicknesses [5]: 4.9±1.0 mm
Quad (quadriceps muscle thickness) ([5]; week 0 (baseline)): 50.9 ± 0.9 mm
Quad (quadriceps muscle thickness) ([5]; week 4): 53.4 ± 1.3 mm
Quad (quadriceps muscle thickness) ([5]; week 8): 54.8 ± 1.7 mm
Quad (quadriceps muscle thickness) ([5]; week 12): 55.8 ± 1.8 mm
24 h 3MH:Cr ([6]; week 0 (baseline)): 0.136 ± 0.008 μmol:mg
24 h 3MH:Cr ([6]; week 1): 0.127 ± 0.007 μmol:mg
24 h 3MH:Cr ([6]; week 8): 0.143 ± 0.007 μmol:mg
24 h 3MH:Cr ([6]; week 9 (overreaching)): 0.143 ± 0.008 μmol:mg
24 h 3MH:Cr ([6]; week 10 (overreaching)): 0.131 ± 0.012 μmol:mg

CC(C)(O)CC(=O)O [HMB-FA, β-hydroxy-β-methylbutyric acid]
effect on PRS [1]: improved PRS
PRS (perceived recovery score) ([1]; week 0 (baseline)): 9.1 ± 0.3
PRS (perceived recovery score) ([1]; week 1): 6.3 ± 0.3
PRS (perceived recovery score) ([1]; week 4): 7.6 ± 0.3
PRS (perceived recovery score) ([1]; week 8): 8.5 ± 0.3
PRS (perceived recovery score) ([1]; week 9 (overreaching)): 8.0 ± 0.2
PRS (perceived recovery score) ([1]; week 10 (overreaching)): 7.7 ± 0.2
PRS (perceived recovery score) ([1]; week 12): 9.5 ± 0.2
effect on free testosterone [2]: no main effect differences
Free Testosterone ([2]; week 0 (baseline)): 109 ± 10 ng/dL
Free Testosterone ([2]; week 1): 104 ± 8 ng/dL
Free Testosterone ([2]; week 4): 116 ± 11 ng/dL
Free Testosterone ([2]; week 8): 115 ± 9 ng/dL
Free Testosterone ([2]; week 9 (overreaching)): 118 ± 8 ng/dL
Free Testosterone ([2]; week 10 (overreaching)): 116 ± 8 ng/dL
Free Testosterone ([2]; week 12): 127 ± 8 ng/dL
Lean body mass increase ([3]; 12-week study): 7.4 ± 0.4 kg
fat percentage decrease ([3]; 12-week study): 7.0±0.6%
DXA Fat ([3]; week 0 (baseline)): 20.4 ± 1.4%
DXA LBM ([3]; week 0 (baseline)): 66.2 ± 2.6 kg
Weight ([3]; week 0 (baseline)): 83.1 ± 2.8 kg
DXA Fat ([3]; week 4): 17.6 ± 1.4%
DXA LBM ([3]; week 4): 69.2 ± 2.7 kg
Weight ([3]; week 4): 83.9 ± 2.8 kg
DXA Fat ([3]; week 8): 15.9 ± 1.5 %
DXA LBM ([3]; week 8): 71.3 ± 2.7 kg
Weight ([3]; week 8): 84.8 ± 2.9 kg
DXA Fat ([3]; week 12): 13.5 ± 1.5 %
DXA LBM ([3]; week 12): 73.5 ± 2.7 kg
Weight ([3]; week 12): 85.0 ± 3.0 kg
plasma levels of HMB compared with calcium HMB [7]: approximately double the plasma levels of HMB
time to plasma levels compared with calcium HMB [7]: about one-quarter the time
Wingate PP gains in power from baseline [4]: 10.2±1.6%
Wingate PP decrease [4]: 0.3±0.9%
12-week increases in quadriceps thicknesses [5]: 7.1±1.2 mm
Quad (quadriceps muscle thickness) ([5]; week 0 (baseline)): 50.7 ± 1.5 mm
Quad (quadriceps muscle thickness) ([5]; week 4): 53.6 ± 1.4 mm
Quad (quadriceps muscle thickness) ([5]; week 8): 56.0 ± 1.4 mm
Quad (quadriceps muscle thickness) ([5]; week 12): 57.8 ± 1.6 mm
loss of HMB to urine [8]: 20-50%
change in protein breakdown [9]: −56%
change in skeletal muscle protein synthesis [9]: +70%
24 h 3MH:Cr ([6]; week 0 (baseline)): 0.127 ± 0.004 μmol:mg
24 h 3MH:Cr ([6]; week 1): 0.122 ± 0.002 μmol:mg
24 h 3MH:Cr ([6]; week 8): 0.124 ± 0.008 μmol:mg
24 h 3MH:Cr ([6]; week 9 (overreaching)): 0.120 ± 0.003 μmol:mg
24 h 3MH:Cr ([6]; week 10 (overreaching)): 0.141 ± 0.004 μmol:mg
